From patent US20090105239A1, “2-PYRIDINE DERIVATIVES AS INHIBITORS OF NEUTROPHILE ELASTASE” (priority 2005, published 2009)

Target: T1, Human Neutrophil Elastase (HNE) (Homo sapiens, UniProt P08246)
T1 construct: Human Neutrophil Elastase (HNE) purified from serum; purchased Calbiochem 324681; host or cells: purified from human serum (so in the source)
T1 sequence (P08246 30-247 limits assumed): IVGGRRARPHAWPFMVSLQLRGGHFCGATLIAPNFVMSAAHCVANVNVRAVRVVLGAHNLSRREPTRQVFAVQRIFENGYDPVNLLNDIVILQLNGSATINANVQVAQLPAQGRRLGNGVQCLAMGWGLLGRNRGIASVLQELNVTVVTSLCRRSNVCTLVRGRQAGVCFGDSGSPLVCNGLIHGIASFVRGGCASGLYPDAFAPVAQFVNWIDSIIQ
Assay: Human Neutrophil Elastase Quenched-FRET Assay
Format: biochemical
Settings: HNE purified from serum 1.7 nM, substrate MeOSuc-AAPV-AMC 100 μM, 30 minutes at room temperature; read-out: Inhibition of Human Neutrophil Elastase IC50
Protocol: Human Neutrophil Elastase Quenched-FRET Assay
HNE was stored in 50 mM sodium acetate (NaOAc), 200 mM sodium chloride (NaCl), pH 5.5 with added 30% glycerol at −20° C. […] The substrate was stored in dimethyl sulphoxide (DMSO) at −20° C. […] The assay buffer constitution was: 100 mM Tris(hydroxymethyl)aminomethane (TRIS) (pH 7.5) and 500 mM NaCl. The enzyme and the compounds were incubated at room temperature for 15 minutes. Then 30 μl substrate in assay buffer was added. The assay was incubated for 30 minutes at room temperature. […] The assay was then stopped by adding 60 μl stop solution (140 mM acetic acid, 200 mM sodium monochloroacetate, 60 mM sodium acetate, pH 4.3).

| IC50 [nM] | Structure (SMILES) |
| --- | --- |
| 9 | Cc1c([S+]([O-])c2ccc(C#N)cc2)cc(C(=O)NCC2(O)CC2)c(=O)n1-c1cccc(C(F)(F)F)c1 (stereo not shown) [Example 27, 5-[(4-Cyanophenyl)sulfinyl]-N-[(1-hydroxycyclopropyl)methyl]-6-methyl-2-oxo-1-[3-(trifluoromethyl)phenyl]-1,2-dihydropyridine-3-carboxamide] |
| 4 | Cc1c([S+]([O-])c2ccc(C#N)cc2)cc(C(=O)NCC(C)O)c(=O)n1-c1cccc(C(F)(F)F)c1 (stereo not shown) [Example 49, 5-[(4-Cyanophenyl)sulfinyl]-N-(2-hydroxypropyl)-6-methyl-2-oxo-1-[3-(trifluoromethyl)phenyl]-1,2-dihydropyridine-3-carboxamide] |
| 14 | CC(=O)Nc1ccc(S(=O)(=O)c2cc(C(=O)NCc3ccc(S(C)(=O)=O)cc3)c(=O)n(-c3cccc(C(F)(F)F)c3)c2C)cc1 [Example 59, 5-{[4-(Acetylamino)phenyl]sulfonyl}-6-methyl-N-[4-(methylsulfonyl)benzyl]-2-oxo-1-[3-(trifluoromethyl)phenyl]-1,2-dihydropyridine-3-carboxamide] |
| 45 | Cc1c(S(=O)(=O)O)cc(C(=O)NCc2ccc(S(C)(=O)=O)cc2)c(=O)n1-c1cccc(C(F)(F)F)c1 [Example 86, 2-Methyl-5-({[4-(methylsulfonyl)benzyl]amino}carbonyl)-6-oxo-1-[3-(trifluoromethyl)phenyl]-1,6-dihydropyridine-3-sulfonic acid] |
